Data from EP1025077B1, “NOVEL ARYLOXY-ALKYL-DIALKYLAMINES” (Wyeth, priority 1997, dated 1999).
Counter-ions that a name gives are not always drawn. Like-named read-outs stand apart in the source and are kept apart here. Values belong to the molecule of their own block, whether it stands above or below them.

Columns and labels:
[1] = system: Immature Sprague-Dawley rats (female, 18 days old); assay: Rat Uterotrophic/Antiuterotrophic Bioassay (uterine wet weight); format: in vivo; settings: for uterine wet weight, 1 uG 17_-estradiol: 1 uG daily ip; for uterine wet weight, 10uG: 10 uG compound daily ip; for uterine wet weight, 100uG: 100 uG compound daily ip
[2] = system: Ishikawa cells; assay: Ishikawa Cell Alkaline Phosphatase Assay; format: cell-based, human; settings: for % Activation: compound alone, percent of response related to 1 nM 17_estradiol; for EC50: Homo sapiens, Ishikawa, cells treated for 48 h
[3] = target: T1, TACE (Homo sapiens, UniProt P78536); assay: Procedure for Measuring TACE Inhibition (fluorescent peptidyl substrate); format: biochemical; settings: read-out: TACE % inhibition at 1 micromolar; 1 micromolar compound
T1 construct: purchased Immunex
T1 sequence (P78536 215-824): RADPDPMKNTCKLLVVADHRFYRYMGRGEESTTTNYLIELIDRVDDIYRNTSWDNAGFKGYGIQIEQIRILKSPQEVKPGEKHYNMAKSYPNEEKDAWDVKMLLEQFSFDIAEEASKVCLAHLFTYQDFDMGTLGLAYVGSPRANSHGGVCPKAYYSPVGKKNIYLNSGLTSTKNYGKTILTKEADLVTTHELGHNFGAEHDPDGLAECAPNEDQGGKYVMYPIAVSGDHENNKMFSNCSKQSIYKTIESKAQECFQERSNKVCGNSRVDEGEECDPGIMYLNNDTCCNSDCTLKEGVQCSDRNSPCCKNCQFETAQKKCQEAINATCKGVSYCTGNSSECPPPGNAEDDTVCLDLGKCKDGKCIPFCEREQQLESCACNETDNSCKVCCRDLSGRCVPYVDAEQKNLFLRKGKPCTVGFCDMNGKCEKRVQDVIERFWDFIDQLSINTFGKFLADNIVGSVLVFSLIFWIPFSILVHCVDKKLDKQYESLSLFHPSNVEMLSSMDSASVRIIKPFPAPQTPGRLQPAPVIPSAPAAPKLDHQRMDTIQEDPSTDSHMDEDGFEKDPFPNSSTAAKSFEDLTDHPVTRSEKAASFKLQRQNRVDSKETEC

Structure (SMILES): C[C@]12CC[C@@H]3c4ccc(O)cc4CC[C@H]3[C@@H]1CC[C@@H]2O [17_-estradiol]
- uterine wet weight, 1 uG 17_-estradiol ([1]; control = 30.7 mg): 1 uG 17_-estradiol = 63.2 mg
- uterine wet weight, 1 uG 17_-estradiol ([1]; control = 42.7 mg): 1 uG 17_-estradiol = 98.2 mg

Structure (SMILES): Cc1c(-c2ccc(O)cc2)n(Cc2ccc(OCCN3CCCCC3)cc2)c2ccc(O)cc12 [Example 15, 2-(4-Hydroxy-phenyl)-3-methyl-1-[4-(2-piperidin-1-yl-ethoxy)-benzyl]-1H-indol-5-ol]
- % Activation ([2]; 48 h): 1% activity (1% with 1 nM 17_-estradiol)
- uterine wet weight, 10uG ([1]; control = 30.7 mg): 39.9 mg
- uterine wet weight, 100uG + 1uG 17 -estradiol ([1]; 100 uG compound + 1 uG 17_ estradiol daily ip (antiestrogenicity), control = 30.7 mg): 24.3 mg
- uterine wet weight, 100uG ([1]; control = 30.7 mg): 27.4 mg

- inhibition at 1 µM [3]: 41%
Structure (SMILES): COc1ccc(S(=O)(=O)C(C)(Cc2ccc(OCCN3CCCCC3)cc2)C(=O)NO)cc1 (centres unmarked) [Example 26]

Structure (SMILES): O=C(c1ccc(OCCN2CCCCC2)cc1)c1c(-c2ccc(O)cc2)sc2cc(O)ccc12 [Raloxifene, [2-(4-hydroxyphenyl)-6-hydroxybenzo[b]thien-3-yl][4-(1-piperidinyl0ethoxy]phenyl-methanone hydrochloride]
- % Activation ([2]; 48 h): 5% activity (5% with 1 nM 17_-estradiol)
- uterine wet weight, 10uG ([1]; control = 42.7 mg): 47.5 mg
- uterine wet weight, 100uG ([1]; control = 42.7 mg): 43.2 mg

Structure (SMILES): CC/C(=C(\c1ccccc1)c1ccc(OCCN(C)C)cc1)c1ccccc1 [Tamoxifen]
- uterine wet weight, 10uG ([1]; control = 42.7 mg): 69.6 mg
- uterine wet weight, 100uG ([1]; control = 42.7 mg): 71.4 mg

- EC50 ([2]; read-out: ED50 values (95% C.I.), estrogenic activity by the alkaline phosphatase method, reference standards): 0.13 nM
Structure (SMILES): C[C@]12CC[C@@H]3c4ccc(O)cc4CC[C@H]3[C@@H]1C[C@@H](O)[C@@H]2O [estriol]

- EC50 ([2]; 48 h, read-out: ED50 values (95% C.I.), estrogenic activity by the alkaline phosphatase method, reference standards): 0.36 nM
Structure (SMILES): C[C@]12CC[C@@H]3c4ccc(O)cc4CC[C@H]3[C@@H]1CCC2=O [estrone]
